Assay results taken from patent US10240133B2, “ERK-derived peptides and uses thereof” (Yeda Research and Development Co. Ltd., priority 2013, dated 2019).
“Also recorded” adds a separate entry of the source.

What was measured:
Format in all cases: cell-based
[1] = system: other melanomas, prostate and lung cancer-derived cells; assay: Proliferation assay (Methylene Blue); settings: 72 h after peptide administration, 10 μM
Description: (§1) FIGS. 3A-3B illustrate that EPE peptide prevents proliferation of cancer but not normal cells. (A) Effect of the EPE peptide on the proliferation of various cell lines. Sixteen cancer and four “normal” immortalized cell lines were treated with either EPE or scrambled peptides as described above. Viable cells were assayed by Methylene Blue at 48 or 72 hours after cell seeding. The data from at least three independent experiments is presented as percent of the amount of viable cells/initial cell number, where initial cell number was considered as 100. (B) Comparison of the effects of the EPE-peptide and Raf inhibitor PLX4032 on cell viability. NHEM-Ad, LOXIMVI, A2352, Hela MDA-MB-231, and DU-145 cells were treated with EPE peptide, scrambled peptide, (10 μM), PLX4032 (1 μM), DMSO control, or no treatment at 1% FCS. The number of cells was detected as above. The graphs present the kinetic of cell growth at the indicated times. All experiments were repeated 3 times in triplicates.
(§2) All cells, except of MCF-10A, were seeded into 12-well cell plates in 1% FBS medium. MCF-10A cells were seeded in their complete medium diluted 5 fold. DMSO, Scr peptide, EPE peptide, or U0126 (final concentration of 10 μM each) were added to the appropriated wells four hours later. Every day medium was changed to fresh one containing the same agents. The number of viable cells was measured by Methylene Blue assay at 72 h after cell seeding. Shortly, cells were fixed with 4% Formaldehyde for 2 h at 23° C., washed once with 0.1M Borate Buffer pH 8.5 and stained with of 1% Methylene Blue in 0.1M Borate Buffer for 10 min. Color was extracted by adding 0.1 M HCl for 3 h at 23° C., and examined at 595 nm. For time course experiments, viable cells were measured at 0, 24, 48, 72 and 96 h after cell seeding. For dose response experiments we treaded the cells with 0.1, 1, 3, 10, or 30 μM of peptides for 72 h, as described above.

[2] = system: melanoma cells with oncogenic B-Raf (B-Raf melanoma); assay: Proliferation assay (Methylene Blue); settings: 72 h after peptide administration, 10 μM
Description: as §1, §2

[3] = system: breast, prostate and cervical cancer-derived cells; assay: Proliferation assay (Methylene Blue); settings: 72 h after peptide administration, 10 μM
Description: as §1, §2

[4] = system: immortalized, non-transformed cells; assay: Proliferation assay (Methylene Blue); settings: 72 h after peptide administration, 10 μM
Description: as §1, §2

AKT = assay: Western blotting of AKT phosphorylation
Description: (§3) (A) EPE peptide prevents ERK1/2-importin7 interaction. HeLa cells were serum starved (0.1%, 16 hours), pretreated with EPE peptide, scrambled peptide (10 μM, 2 hours) or DMSO, and then stimulated with TPA (250 nM, 15 min). ERK1 were precipitated with αgERK1 Ab; importin7 co-immunoprecipitated with ERK1 was detected by WB with αimportin7 Ab. […] T47D, HeLa, MDA-MB-231 and A2352 cells were serum starved (0.1%, 16 hours), pretreated with EPE peptide, scrambled peptide (10 μM, 2 hours) or DMSO control, and then stimulated with TPA (250 nM, indicated times). Cell extracts were subjected to Western blot analysis with the indicated Abs. (C) EPE peptide inhibits phosphorylation of c-Myc and Elk1 in B-Raf melanomas. A2158 and A2352 cells were treated with scrambled and EPE peptide for two hours and then stimulated with the indicated concentration of TPA for 30 min. […] (D) Quantification of some of the results in B and C. […]
(§4) (i) Preparation of cellular extracts for Western Blotting: Cells were rinsed twice with ice-cold PBS and scraped into Radio-immunoprecipitation assay buffer (RIPA; 137 mM NaCl, 20 mM Tris (pH 7.4), 10% glycerol, 1% Triton X-100, 0.5% deoxycholate, 0.1% SDS, 2 mM EDTA, 1 mM PMSF, and 20 μM leupeptin). The extracts were centrifuged (20,000×g, 15 min, 4° C.), and the supernatants were further analyzed by Western blotting. […]

JNK2 and p38 = assay: Nuclear translocation of other MAPKs (fluorescence microscopy); settings: HeLa cells; TPA or anisomycin
Description: HeLa cells were serum-starved, pretreated with the EPE or Scr peptides, and then stimulated with either TPA (250 nM, 15 min), anisomycin (Anis, 10 μg/ml, 15 min) for the indicated times, or left untreated as control (NT). The cells were stained with αp38 or αgJNK Abs and DAPI. Scale bar—15 μm. (B) Extracts from cells treated as in A were analyzed by Western blotting with the indicated Abs.
Cells were fixed in 3% paraformaldehyde in PBS (20 min, 23° C.), and then permeabilized and blocked with 0.2% Triton X-100 in PBS-BSA (2%) for 20 min at 23° C. The fixed cells were sequentially incubated with appropriated Abs, (diluted in 10 μg/ml BSA/PBS) for 1 h, followed by either Cy-2 or rhodamine-conjugated secondary Abs and DAPI (diluted in BSA/PBS, 1:200) for 1 h. To follow the subcellular localization of the biotin-conjugated peptides, cells were incubated with Avidin-FITC (diluted in BSA/PBS 1:400) and DAPI. Slides were analyzed and photographed by a fluorescent microscope (Nikon, Japan, 600× magnification).

RSK = assay: Western blotting of RSK phosphorylation; settings: four distinct cell lines
Description: as §3, §4

Question: What does the source list for “GQLNHILGILGEPEQED (Synthetic peptide (EPE)) [EPE peptide, NTS-derived peptide with phosphomimetic EPE motif]”?
Answer: proliferation (cell number) [1]: small decrease in cell growth; proliferation (cell number) [2]: profound reduction in cell number; proliferation (cell number) [3]: prevented cell growth, but did not reduce the number of initial cells; proliferation (cell number) [4]: did not respond to the peptide at all; activation of AKT in resistant melanoma cells (AKT; data not shown): No significant effects; basal or stimulated phosphorylation of AKT (AKT; shortly after stimulation or longer time periods after treatment): no effect on the basal or stimulated phosphorylation of AKT; translocation of other MAPKs (JNK2, p38) (JNK2 and p38): affected neither the translocation of other MAPKs; also recorded: does not affect the nuclear translocation of JNK2 and p38; downstream activity of RSK (RSK): no effect
